Patent US8293211B2, “CB1 receptor antagonists and uses thereof” (MAKScientific, LLC, priority 2007, dated 2012)

How the values were obtained:
[1] = molecular target: T1, hCB2 receptor (Homo sapiens, UniProt P34972); assay: [3H]CP55,940 competitive binding assay, CB2 (HEK293 cells expressing hCB2); details: against [3H]CP55,940; HEK293 hCB2 membranes
T1 construct: expressed in transfected cells; host or cells: HEK293
Description: Compounds were tested for their CB1 and CB2 receptor using membrane preparations from rat brain or HEK293 cells expressing hCB2 receptor, respectively, and [^3H]CP55,940 as previously described 1, 36-38. Stock solutions of the compounds (10 mM in DMSO) were diluted in TME buffer (50 mM Tris-HCL, 3 mM MgCl2, 100 mM NaCl, 0.2 mM EDTA, pH 7.4) with 0.1% BSA and transferred to 96 well plates containing [^3H]CP55,940 (specific activity 128 Ci/mmol; NIDA) at a final concentration of 0.76 nM. Non-specific binding was assessed in the presence of 100 nM CP55,940. The binding reaction was initiated with the addition of the respective membrane suspension (˜50 μg membrane protein) followed by incubation at 30° C. with gentle agitation in a shaking water bath for 60 minutes. […] The filter plates were washed with ice-cold wash buffer (50 mM Tris-base, 5 mM MgCl2 with 0.5% BSA) and bound radioactivity was determined using a Packard TopCount Scintillation Counter. The results were analyzed using nonlinear regression to determine the actual IC50 and the Ki values of the ligand (Prizm by GraphPad Software, Inc.). All data were in duplicate with IC50 and Ki values determined from at least two independent experiments.
The affinity of a compound for CB1 vs. CB2 is determined by the ratio of the inhibitory constants (Ki), as determined by the competitive binding assay.

[2] = system: Rats; assay: Taste reactivity studies (conditioned gaping, saccharin preference); type: in vivo, rat; details: for Mean (±SEM) saccharin preference ratio: 2-bottle preference test
Description: Rats were implanted with intraoral cannulae and 24 hrs prior to the surgical procedure, they were administered a prophylactic antibiotic (Derapin, 100 mg/kg, sc; Ayerst). On the day of surgery, the rats were anaesthetized with isofluorane gas and were administered Anafen (7.0 mg/kg, sc; Merial), a nonsteroidal anti-inflammatory drug (NSAID) with analgesic properties. A 3.0 cm^2 patch of fur was shaved at the back of the neck just above the scapula and the area was surgically prepared [Betadine surgical scrub (Purdue Frederick) and alcohol]. A thin-walled 15-gauge stainless steel needle was inserted at the back of the neck, directed s.c., around the ear and brought out behind the first molar inside the mouth. A length of IntraMedic polyetheylene tubing with an inner diameter of 0.86 mm and an outer diameter of 1.27 mm was then run through the needle after which the needle was removed. Two circular elastic discs were placed over the tubing and drawn to the exposed skin at the back of the neck for the purpose of stabilizing the cannula. The tubing was held secure in the oral cavity by an o-ring, which was sealed behind the tubing prior to cannulation surgery. For the purposes of conditioning and testing, the cannula was connected to the infusion pump (Harvard Apparatus, South Natick, Mass.) for delivery of the solution by slipping the tubing of the cannula inside a second polyethylene tube (inner diameter 1.19 mm, outer diameter 1.70 mm) attached to the infusion pump. Two rats were subsequently removed from the study due to an ineffective cannula.
Five days after surgery and prior to conditioning (day 1), rats were individually placed in the Plexiglas taste reactivity chamber (22.5×26×20 cm) with their cannula attached to the infusion pump for fluid delivery. The rats were habituated to the taste reactivity procedure by infusing them with water for a period of 5 min at a rate of 1.0 ml/min after which they were returned to their home cage. On day 2, the rats were individually taken to the chamber for a single conditioning trial. They were intraorally infused with 0.1% saccharin solution for 5 min at a rate of 1.0 ml/min while their orofacial and somatic responses were videotaped from a mirror at a 45° angle below the chamber. Immediately after the saccharin infusion the rats were injected with the appropriate dose of Compound 3, according to random assignment: 0.0 mg/kg (vehicle; n=8), 2.0 mg/kg (n=7), 4.0 mg/kg (n=7), 8.0 mg/kg (n=8). On day 5, the animals were given a second adaptation trial with a 5-min intraoral infusion of water.
Taste reactivity testing occurred on day 6, 96 hr after conditioning. The rats were taken to the chamber and following a period of 1 min were infused with 0.1% saccharin solution over a period of 5 min (1.0 ml/min) while being videotaped. Immediately after the session, the rats were returned to their home cage. On day 7, following 15 hr of water deprivation, the rats were given a 2-bottle preference test. The rats were presented with a graduated tube containing 0.1% saccharin solution and a graduated tube containing water for a period of 120 min. The amount consumed from each bottle during the 120 min of drinking was converted to a preference score: Amount consumed of saccharin solution/amount consumed of saccharin+amount consumed of water. The taste reactivity videotapes were scored using the Observer (Noldus Information Technology, Sterling, Va.) event-recording program. The behaviors scored included the frequency of gaping, chin rubs, ingestive reactions, passive drips and activity. Gaping was defined as rapid, large-amplitude opening of the mandible with retraction of the corners of the mouth. Chin rubbings were defined as chin or mouth in direct contact with the floor or wall of the chamber and forward projections of the body. […]

[3] = molecular target: CB1 receptor (Rattus norvegicus, UniProt P20272); assay: Thermoregulation assay: hypothermia induced by the CB1 agonist CP55,940; type: in vivo; parameters: antagonized CB1 receptors in vivo; from tissue; host or cells: whole animal, male SD rats
Description: Briefly, silicone coated temperature data loggers (SubCue Inc, Calgary, Canada) were surgically implanted into the abdominal cavity of male SD (450-500 g) rats under isoflurane anesthesia (4% induction; 2-2.5% maintenance). Rats were allowed to recover for 3 days before being acclimatized to testing and handling procedures for an additional seven days. Core body temperature readings were sampled every 5 min for 300 min during the course of each experiment.

[4] = system: Rats; assay: Operant lever pressing on FR5 schedules; type: in vivo, rat
Description: Following the initial training period, rats (n=8 each group) were injected with drug and then tested once a week on Thursdays. For experiments 1 and 2, Compound 3 or Compound 2, respectively were injected IP at doses of 1.0, 2.0, 4.0, or 8.0 mg/kg or vehicle. Pretreatment time for these two experiments was 30 min. For experiments 3 and 4, rats were given drug or vehicle orally 1 hour before testing. In experiment 3, rats were given vehicle or 8.0, 16.0, or 32.0 mg/kg Compound 3. In experiment 4, rats received vehicle or Compound 2 at doses of 4.0, 8.0, or 16.0 mg/kg. All doses were given in a randomized order using a repeated measures design.

Sequence of CB1 receptor (P20272 whole entry): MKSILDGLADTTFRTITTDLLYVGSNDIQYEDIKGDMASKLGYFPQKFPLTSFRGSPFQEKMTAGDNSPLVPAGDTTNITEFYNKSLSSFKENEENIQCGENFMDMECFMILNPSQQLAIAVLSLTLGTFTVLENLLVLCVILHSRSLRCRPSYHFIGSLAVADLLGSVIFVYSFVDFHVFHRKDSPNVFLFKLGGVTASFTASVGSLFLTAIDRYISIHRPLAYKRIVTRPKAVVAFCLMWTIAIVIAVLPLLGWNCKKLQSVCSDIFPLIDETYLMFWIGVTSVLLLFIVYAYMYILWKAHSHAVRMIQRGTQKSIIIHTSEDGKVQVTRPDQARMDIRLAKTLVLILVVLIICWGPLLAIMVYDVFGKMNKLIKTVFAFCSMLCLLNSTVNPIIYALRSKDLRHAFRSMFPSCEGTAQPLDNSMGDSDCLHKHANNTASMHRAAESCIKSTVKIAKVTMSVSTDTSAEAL
T1 sequence (P34972 whole entry): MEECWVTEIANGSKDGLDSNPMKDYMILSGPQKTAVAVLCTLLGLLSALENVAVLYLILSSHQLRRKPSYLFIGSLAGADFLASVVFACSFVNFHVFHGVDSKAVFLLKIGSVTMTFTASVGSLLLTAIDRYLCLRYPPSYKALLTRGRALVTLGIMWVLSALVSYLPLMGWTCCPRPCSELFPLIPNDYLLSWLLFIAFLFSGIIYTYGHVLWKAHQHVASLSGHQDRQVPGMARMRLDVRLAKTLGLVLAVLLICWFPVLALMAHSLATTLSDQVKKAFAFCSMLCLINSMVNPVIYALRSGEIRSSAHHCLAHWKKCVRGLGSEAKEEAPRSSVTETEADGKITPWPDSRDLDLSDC

SMILES: Cc1c(C(=O)NN2CCCCC2)nn(-c2ccc(Cl)cc2Cl)c1-c1ccc(C#CCCC#N)cc1 [Compound 3]
- Ki [1]: 92 nM
- ingestion (hedonic) taste reactions, Mean±SEM ([2]; 2.0 mg/kg): 10.5 (3.2)
- Mean (±SEM) saccharin preference ratio ([2]; 2.0 mg/kg): 0.411 (0.059)
- ingestion (hedonic) taste reactions, Mean±SEM ([2]; 4.0 mg/kg): 4.5 (1.5)
- Mean (±SEM) saccharin preference ratio ([2]; 4.0 mg/kg): 0.298 (0.074)
- ingestion (hedonic) taste reactions, Mean±SEM ([2]; 8.0 mg/kg): 1.3 (0.5)
- Mean (±SEM) saccharin preference ratio ([2]; 8.0 mg/kg): 0.088 (+0.017)
- effect on chin rubbing or conditioned gaping ([2]; 2.0, 4.0, 8.0 mg/kg): no significant effects
- hypothermic effect of CP55,940 ([3]; 5 mg kg-1 pre-treatment 45 min before CP55,940 0.3 mg kg-1, compared with vehicle): completely blocked
- blood brain barrier passage ([3]; inferred from block of centrally mediated hypothermia, within a short period after administration): crosses the blood brain barrier
- suppression of FR5 responding compared to vehicle ([4]; IP 1.0, 2.0, 4.0, 8.0 mg/kg): significantly suppressed
- ED50 ([4]; Rattus norvegicus, IP, pretreatment 30 min, read-out: ED50 for the effect on FR5 responding): 0.78 mg/kg
- change in lever pressing on FR5 compared to vehicle ([4]; oral, 1 hour before testing (Compound 3 8.0-32.0 mg/kg; Compound 2 4.0-16.0 mg/kg)): no significant change
